Consider four compounds from ChEMBL document CHEMBL5465560, “Selectivity Literature for EUbOPEN Chemogenomic Library” (2024).

In experiment [1] the target is T1, Interleukin-1 receptor-associated kinase 4 (Homo sapiens) (UniProt Q9NWZ3).
T1 sequence (whole entry): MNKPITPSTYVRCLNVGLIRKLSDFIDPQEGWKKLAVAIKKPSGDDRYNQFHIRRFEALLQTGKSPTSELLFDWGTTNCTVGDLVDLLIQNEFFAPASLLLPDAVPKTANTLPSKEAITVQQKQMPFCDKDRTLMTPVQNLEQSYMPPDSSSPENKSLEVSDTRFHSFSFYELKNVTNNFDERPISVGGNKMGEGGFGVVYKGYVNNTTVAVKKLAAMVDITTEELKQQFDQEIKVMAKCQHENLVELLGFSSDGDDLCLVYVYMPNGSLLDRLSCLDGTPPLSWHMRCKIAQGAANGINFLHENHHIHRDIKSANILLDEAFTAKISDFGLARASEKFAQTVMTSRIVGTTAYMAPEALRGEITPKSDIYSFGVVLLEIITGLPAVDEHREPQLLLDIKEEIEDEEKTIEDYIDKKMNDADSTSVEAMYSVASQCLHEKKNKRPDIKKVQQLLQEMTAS
The experiment in a line: Selectivity interaction (KinomeScan (DiscoverX)) EUB0001550a IRAK4. Conditions: at 1 µM.

In experiment [2] the test system is T2, Receptor-type tyrosine-protein kinase FLT3 (Homo sapiens), P36888 [N841I].
T2 sequence (whole entry): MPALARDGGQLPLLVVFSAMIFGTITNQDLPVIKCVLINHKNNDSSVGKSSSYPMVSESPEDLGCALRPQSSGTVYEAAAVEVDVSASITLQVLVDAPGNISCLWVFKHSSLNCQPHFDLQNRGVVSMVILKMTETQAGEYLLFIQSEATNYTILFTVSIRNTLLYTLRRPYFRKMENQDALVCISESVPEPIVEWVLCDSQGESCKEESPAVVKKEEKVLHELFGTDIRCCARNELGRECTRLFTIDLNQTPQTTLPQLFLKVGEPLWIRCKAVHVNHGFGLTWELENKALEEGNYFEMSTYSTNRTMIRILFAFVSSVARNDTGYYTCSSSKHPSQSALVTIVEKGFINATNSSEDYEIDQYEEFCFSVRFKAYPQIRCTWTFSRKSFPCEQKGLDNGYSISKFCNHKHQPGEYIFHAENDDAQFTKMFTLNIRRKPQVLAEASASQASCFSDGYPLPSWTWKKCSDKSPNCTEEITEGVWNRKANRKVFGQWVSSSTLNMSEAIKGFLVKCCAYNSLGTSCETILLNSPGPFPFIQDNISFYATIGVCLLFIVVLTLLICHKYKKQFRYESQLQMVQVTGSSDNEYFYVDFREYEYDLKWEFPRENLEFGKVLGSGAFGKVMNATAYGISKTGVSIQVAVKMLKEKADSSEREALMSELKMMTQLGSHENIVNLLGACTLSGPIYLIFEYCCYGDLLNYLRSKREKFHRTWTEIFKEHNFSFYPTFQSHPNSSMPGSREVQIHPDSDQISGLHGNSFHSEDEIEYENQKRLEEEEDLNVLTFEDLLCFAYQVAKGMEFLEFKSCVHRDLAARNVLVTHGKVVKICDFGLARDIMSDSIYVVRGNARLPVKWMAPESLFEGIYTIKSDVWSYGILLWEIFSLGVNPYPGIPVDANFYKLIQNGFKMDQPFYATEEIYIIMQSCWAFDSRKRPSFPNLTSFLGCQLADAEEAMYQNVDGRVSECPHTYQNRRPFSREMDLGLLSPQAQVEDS
In words: (§1) Selectivity interaction (KinomeScan (DiscoverX)) EUB0000311b FLT3. Conditions: at 1 µM.

Experiment [3] has as its system Receptor-type tyrosine-protein kinase FLT3 (Homo sapiens), P36888 [UNDEFINED MUTATION]. The description is as §1. Conditions: at 1 µM.
Experiment [4] addresses T3, Dual specificity protein kinase TTK (Homo sapiens) (UniProt P33981).
T3 sequence (whole entry): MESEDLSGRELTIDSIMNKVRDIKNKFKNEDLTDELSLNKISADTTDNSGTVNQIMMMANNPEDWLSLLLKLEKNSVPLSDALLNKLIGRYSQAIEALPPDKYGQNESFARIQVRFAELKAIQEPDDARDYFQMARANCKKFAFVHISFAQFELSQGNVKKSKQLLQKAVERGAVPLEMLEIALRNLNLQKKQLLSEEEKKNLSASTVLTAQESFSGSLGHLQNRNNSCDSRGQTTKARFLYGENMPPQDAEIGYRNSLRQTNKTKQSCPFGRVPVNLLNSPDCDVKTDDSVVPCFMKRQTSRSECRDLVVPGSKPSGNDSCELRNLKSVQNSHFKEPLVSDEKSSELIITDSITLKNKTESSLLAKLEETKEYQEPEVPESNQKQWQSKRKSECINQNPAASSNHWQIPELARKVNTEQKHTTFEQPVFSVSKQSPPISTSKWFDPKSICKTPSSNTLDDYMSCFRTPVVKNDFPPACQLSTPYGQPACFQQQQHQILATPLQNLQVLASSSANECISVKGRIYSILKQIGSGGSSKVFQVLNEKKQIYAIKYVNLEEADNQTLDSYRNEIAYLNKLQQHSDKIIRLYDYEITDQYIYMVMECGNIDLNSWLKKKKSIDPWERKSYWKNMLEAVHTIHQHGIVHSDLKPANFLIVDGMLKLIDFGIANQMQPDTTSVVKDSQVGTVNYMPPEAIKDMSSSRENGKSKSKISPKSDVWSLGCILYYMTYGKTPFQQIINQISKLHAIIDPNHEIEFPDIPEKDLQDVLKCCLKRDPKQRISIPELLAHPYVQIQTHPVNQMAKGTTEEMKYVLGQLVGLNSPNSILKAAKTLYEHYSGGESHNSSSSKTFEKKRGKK
The experiment in a line: Selectivity interaction (ProQinase) EUB0000171b TTK.

For experiment [5], the target named is Tyrosine-protein kinase Yes (Homo sapiens) (UniProt P07947). The experiment in a line: Selectivity interaction (KinomeScan (DiscoverX)) EUB0000618a YES1. Conditions: at 10 µM.
Sequence of Tyrosine-protein kinase Yes (Homo sapiens) (P07947 2-543 limits assumed): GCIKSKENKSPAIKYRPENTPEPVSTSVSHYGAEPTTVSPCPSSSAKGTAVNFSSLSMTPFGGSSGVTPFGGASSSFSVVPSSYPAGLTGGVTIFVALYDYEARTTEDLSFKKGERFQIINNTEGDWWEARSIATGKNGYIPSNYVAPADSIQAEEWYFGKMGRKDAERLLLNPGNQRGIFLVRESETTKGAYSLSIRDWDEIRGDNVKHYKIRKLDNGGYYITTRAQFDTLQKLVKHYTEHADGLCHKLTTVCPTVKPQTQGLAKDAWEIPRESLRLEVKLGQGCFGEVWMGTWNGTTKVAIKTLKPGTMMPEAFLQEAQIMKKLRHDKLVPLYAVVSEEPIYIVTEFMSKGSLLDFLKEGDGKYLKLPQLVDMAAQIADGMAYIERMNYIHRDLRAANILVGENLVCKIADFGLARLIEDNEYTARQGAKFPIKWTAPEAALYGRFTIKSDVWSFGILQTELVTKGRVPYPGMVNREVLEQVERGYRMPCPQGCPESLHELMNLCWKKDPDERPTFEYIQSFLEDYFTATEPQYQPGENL

For `CN(C)CC#Cc1ccc2[nH]c3c(c2c1)-c1nc(N)ncc1CCC3`, the % of control in experiment [1] worked out at 21%. `CCc1ccccc1C(=O)Nc1n[nH]c2c(C)c(F)c(C3C(C#N)=C(C)N(C)C(C)=C3C#N)cc12` [BAY-3827]: the values for the % of control in experiment [2] and in experiment [3] were 0% and 11%, respectively.

For the compound `C=CC(=O)Nc1cccc(C(=O)Nc2ccc(Nc3cc(-c4[nH]c(SC)nc4C)ccn3)cc2)c1`, the results for the % of control in experiment [4] (at 1 µM) and in experiment [4] (at 5 µM) were 72% and 34%, respectively. In experiment [5], `O[C@H]1CC[C@H](Nc2ncc3nc(Nc4c(F)cc(F)cc4F)n([C@H]4CCOC4)c3n2)CC1` had a % of control of 98%.
